Measured values: patent US8129366B2, “VLA-4 inhibitory drug” (Daiichi Sankyo Company, Limited, priority 2005, dated 2012)
pIC50, pKi: −log10 of the molar value.

Target: T1, hα4 and β1 integrins (Homo sapiens, UniProt P05556+P13612)
T1 construct: expressed in transfected cells; host or cells: CHO cells
Experiment: In vitro inhibition of binding between CHO cells expressing hα4 and β1 integrins and Eu3+-hVCAM-1 D1D7-IgG
Details: for pKi: CHO cells expressing hα4 and β1 integrins, Eu3+-hVCAM-1 D1D7-IgG ligand, without HSA; for pIC50: in the presence of 3% human serum albumin (HSA final concentration 3%)
Description: CHO cells which forcibly expressed hα4 and β1 integrins through transfection thereof, were inoculated into a Costar 3599 plate (3×10^4 cells/100 μl/well), and cultured for two days. The cells in the wells were washed two times with buffer A*, and then Eu^3+-hVCAM-1 D1D7-IgG diluted with assay buffer** to 2 nM was added in an amount of 50 μl/well. The substance under test diluted with 26 DMSO-assay buffer (in the co-presence or absence of 6% human serum albumin) was added in an amount of 50 μl/well (adding separately diluted solution to the wells for performing Scatchard analysis), the contents were stirred for 5 minutes with a plate mixer, and then the plate was left to stand still for one hour at room temperature. The binding inhibitory activity in the presence of human serum albumin (HSA) was examined by diluting the specimen with 26 DMSO-assay buffer containing 6% HSA (SIGMA Corp., c/n A-1653), and adding the resultant (HSA final concentration 3%). After 30 to 60 minutes of the addition of specimen, the plate contents were washed 4 times with buffer A at 4° C., an enhancing reagent (DELFIA SA) was added in an amount of 100 μl/well, and the plate was shaken for 5 minutes using a plate mixer. Subsequently, the fluorescence intensity was measured with a time-resolved fluorometer (DELFIA Wallac). The IC50 of the substance under test (the concentration for 50% inhibition of the binding between CHO cells and Eu^3+-hVCAM-1 D1D7-IgG) was determined from the binding rate obtained from the calculating expression of [(FT−FNS)−(FI−FNS)]/[(FT−FNS)]×100. Here, FT represents the fluorescence intensity of a well not containing the substance under test; FNS represents the fluorescence intensity of a well not containing the substance under test and hVCAM-1 D1D7-IgG; and FI represents the fluorescence intensity of a well containing the substance under test. The Kd value which represents the strength of binding, and Bmax (maximum binding amount) were estimated to be in the range of 0.06 to 20 nM according to the Scatchard analysis method. The evaluation results of the Ki value of the substance under test, and of the IC50 value in the presence of 3% HSA are presented in Tables 2 to 7.
The Ki value was calculated according to the above-described expression. ([L] is the ligand concentration)
[* buffer A: 25 mM HEPES (pH 7.5), 150 mM NaCl, 1 mM Ca^2+, 1 mM Mg^2+, 4 mM Mn2+;
** assay buffer: 25 mM HEPES (pH=7.5), 150 mM NaCl, 1 mM Ca^2+, 1 mM Mg^2+, 4 mM Mn^2+, 0.1% BSA, 20 μM DTPA, with/without 6% ALBUMIN, HUMAN SERUM (C/N A-1653, SIGMA)]

T1 sequence (P13612 34-1032): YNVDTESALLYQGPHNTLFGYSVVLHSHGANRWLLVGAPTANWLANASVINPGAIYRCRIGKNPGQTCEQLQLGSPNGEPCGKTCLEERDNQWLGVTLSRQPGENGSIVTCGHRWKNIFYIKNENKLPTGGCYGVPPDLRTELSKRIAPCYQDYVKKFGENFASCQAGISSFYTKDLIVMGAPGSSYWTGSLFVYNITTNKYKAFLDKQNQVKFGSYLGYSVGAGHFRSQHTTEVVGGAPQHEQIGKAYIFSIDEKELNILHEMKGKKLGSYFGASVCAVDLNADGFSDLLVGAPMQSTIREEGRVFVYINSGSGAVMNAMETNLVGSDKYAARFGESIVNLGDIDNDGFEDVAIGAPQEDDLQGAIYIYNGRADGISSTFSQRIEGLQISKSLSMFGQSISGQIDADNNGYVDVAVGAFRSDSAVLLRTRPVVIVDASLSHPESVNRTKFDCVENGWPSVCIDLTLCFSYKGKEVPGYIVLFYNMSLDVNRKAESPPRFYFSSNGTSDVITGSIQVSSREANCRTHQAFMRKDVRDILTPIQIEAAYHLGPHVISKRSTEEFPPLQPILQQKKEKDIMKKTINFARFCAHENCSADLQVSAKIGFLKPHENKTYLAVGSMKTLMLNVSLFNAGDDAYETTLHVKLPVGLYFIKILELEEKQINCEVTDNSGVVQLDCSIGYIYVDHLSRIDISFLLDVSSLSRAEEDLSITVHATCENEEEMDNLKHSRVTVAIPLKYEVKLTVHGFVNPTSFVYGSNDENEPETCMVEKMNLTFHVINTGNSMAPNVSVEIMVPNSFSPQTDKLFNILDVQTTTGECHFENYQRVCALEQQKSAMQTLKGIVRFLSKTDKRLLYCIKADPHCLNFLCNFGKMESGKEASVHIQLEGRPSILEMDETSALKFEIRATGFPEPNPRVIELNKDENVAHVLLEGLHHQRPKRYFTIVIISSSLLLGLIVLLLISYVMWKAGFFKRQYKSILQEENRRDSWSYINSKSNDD
T1 sequence (P05556 21-798): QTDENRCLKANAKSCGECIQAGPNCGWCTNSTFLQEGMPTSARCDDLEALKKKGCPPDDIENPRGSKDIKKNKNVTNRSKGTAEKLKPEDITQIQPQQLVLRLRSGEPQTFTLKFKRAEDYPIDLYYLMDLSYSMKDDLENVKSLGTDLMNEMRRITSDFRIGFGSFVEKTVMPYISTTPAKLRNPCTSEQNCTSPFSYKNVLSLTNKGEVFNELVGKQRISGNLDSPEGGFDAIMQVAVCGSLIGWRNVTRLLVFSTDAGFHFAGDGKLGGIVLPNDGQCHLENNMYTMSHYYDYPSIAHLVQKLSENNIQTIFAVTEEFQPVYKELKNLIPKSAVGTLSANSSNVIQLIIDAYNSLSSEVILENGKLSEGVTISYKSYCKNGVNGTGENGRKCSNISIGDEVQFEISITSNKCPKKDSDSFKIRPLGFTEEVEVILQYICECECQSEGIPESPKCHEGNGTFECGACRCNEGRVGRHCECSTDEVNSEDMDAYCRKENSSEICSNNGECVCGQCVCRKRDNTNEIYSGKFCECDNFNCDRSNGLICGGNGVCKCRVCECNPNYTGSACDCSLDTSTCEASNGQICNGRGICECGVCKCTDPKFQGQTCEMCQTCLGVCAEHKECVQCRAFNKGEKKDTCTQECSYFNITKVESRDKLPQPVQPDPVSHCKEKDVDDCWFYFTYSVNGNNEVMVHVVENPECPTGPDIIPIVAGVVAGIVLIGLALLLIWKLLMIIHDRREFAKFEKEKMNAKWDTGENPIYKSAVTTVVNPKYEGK

SMILES | pKi | pIC50
CCO[C@H]1[C@H](N2CCCCC2)CN(C(=O)Cc2cc(Cl)c(NC(=O)c3cn(C)c4ccccc34)cc2F)[C@@H]1CO[C@H]1CC[C@H](C(=O)O)CC1 [Example 97, Trans-4-[1-[[5-chloro-2-fluoro-4-[(1-methyl-1H-indol-3-ylcarbonyl)amino]phenyl]acetyl]-(3R)-ethoxy-(4R)-(piperidin-1-yl)-(2R)-pyrrolidinylmethoxy]cyclohexanecarboxylic acid] | 8.80 | 8.31
COC1CN([C@H]2C[C@@H](CO[C@H]3CC[C@H](C(=O)O)CC3)N(C(=O)Cc3cc(Cl)c(NC(=O)c4coc5ccccc45)cc3Cl)C2)C1 [Example 6, Trans-4-[1-[[4-[(benzo[b]furan-3-ylcarbonyl)amino]-2,5-dichlorophenyl]acetyl]-(4S)-(3-methoxyazetidin-1-yl)-(2S)-pyrrolidinylmethoxy]cyclohexanecarboxylic acid] | 8.23 | 7.12
O=C(Nc1cc(F)c(CC(=O)N2C[C@@H](N3CCCS3(=O)=O)C[C@H]2CO[C@H]2CC[C@H](C(=O)O)CC2)cc1Cl)c1coc2ccccc12 [Example 70, Trans-4-[1-[[4-[(benzo[b]furan-3-ylcarbonyl)amino]-5-chloro-2-fluorophenyl]acetyl]-(4S)-(1,1-dioxo-1λ^6-isothiazolidin-2-yl)-(2S)-pyrrolidinylmethoxy]cyclohexanecarboxylic acid] | 7.74 | 7.21
O=C(Nc1cc(F)c(CC(=O)N2C[C@@H](N3CCN(Cc4ccccc4)CC3)C[C@H]2CO[C@H]2CC[C@H](C(=O)O)CC2)cc1Cl)c1csc2ccccc12 [Example 116, Trans-4-[(4S)-(4-benzylpiperazin-1-yl)-1-[[4-[(benzo[b]thiophen-3-ylcarbonyl)amino]-5-chloro-2-fluorophenyl]acetyl]-(2S)-pyrrolidinylmethoxy]cyclohexanecarboxylic acid] | 9.22 | 7.68
CN1CCN([C@H]2C[C@@H](CO[C@H]3CC[C@H](C(=O)O)CC3)N(C(=O)Cc3cc(Cl)c(NC(=O)c4csc5ccccc45)cc3F)C2)CC1 [Example 111, Trans-4-[1-[[4-[(benzo[b]thiophen-3-ylcarbonyl)amino]-5-chloro-2-fluorophenyl]acetyl]-(4S)-(4-methylpiperazin-1-yl)-(2S)-pyrrolidinylmethoxy]cyclohexanecarboxylic acid] | 9.54 | 8.92
O=C(Nc1cc(Cl)c(CC(=O)N2C[C@@H](n3ccnc3)C[C@H]2CO[C@H]2CC[C@H](C(=O)O)CC2)cc1Cl)c1csc2ccccc12 [Example 68, Trans-4-[1-[[4-[(benzo[b]thiophen-3-ylcarbonyl)amino]-2,5-dichlorophenyl]acetyl]-(4S)-(imidazol-1-yl)-(2S)-pyrrolidinylmethoxy]cyclohexanecarboxylic acid] | 8.68 | 7.52
CO[C@@H]1CN([C@H]2C[C@@H](CO[C@H]3CC[C@H](C(=O)O)CC3)N(C(=O)Cc3cc(Cl)c(NC(=O)c4cn(C)c5ccccc45)cc3Cl)C2)C[C@H]1OC [Example 64, Trans-4-[1-[[2,5-dichloro-4-[(1-methyl-1H-indol-3-ylcarbonyl)amino]phenyl]acetyl]-(4S)-[(3R,4R)-dimethoxypyrrolidin-1-yl]-(2S)-pyrrolidinylmethoxy]cyclohexanecarboxylic acid] | 8.30 | 7.48
CO[C@H]1CN([C@H]2C[C@@H](CO[C@H]3CC[C@H](C(=O)O)CC3)N(C(=O)Cc3cc(Cl)c(NC(=O)c4coc5ccccc45)cc3F)C2)C[C@H]1OC [Example 59, Trans-4-[1-[[4-[(benzo[b]furan-3-ylcarbonyl)amino]-5-chloro-2-fluorophenyl]acetyl]-(4S)-(cis-3,4-dimethoxypyrrolidin-1-yl)-(2S)-pyrrolidinylmethoxy]cyclohexanecarboxylic acid] | 8.52 | 8.09
C[C@@H]1CN([C@H]2C[C@@H](CO[C@H]3CC[C@H](C(=O)O)CC3)N(C(=O)Cc3cc(Cl)c(NC(=O)c4c[nH]c5ccccc45)cc3Cl)C2)C[C@H](C)O1 [Example 89, Trans-4-[1-[[2,5-dichloro-4-[(1H-indol-3-ylcarbonyl)amino]phenyl]acetyl]-(4S)-(cis-2,6-dimethylmorpholin-4-yl)-(2S)-pyrrolidinylmethoxy]cyclohexanecarboxylic acid] | 9.02 | 8.64
CO[C@H]1CN([C@H]2C[C@@H](CO[C@H]3CC[C@H](C(=O)O)CC3)N(C(=O)Cc3cc(Cl)c(NC(=O)c4cn(C)c5ccccc45)cc3Cl)C2)C[C@H]1OC [Example 56, Trans-4-[1-[[2,5-dichloro-4-[(1-methyl-1H-indol-3-ylcarbonyl)amino]phenyl]acetyl]-(4S)-(cis-3,4-dimethoxypyrrolidin-1-yl)-(2S)-pyrrolidinylmethoxy]cyclohexanecarboxylic acid] | 8.62 | 8.04

Now from value to compound:

pKi | pIC50 | SMILES
8.33 | 7.96 | Cn1cc(C(=O)Nc2cc(F)c(CC(=O)N3C[C@@H](N4CCN(C5CCCC5)CC4)C[C@H]3CO[C@H]3CC[C@H](C(=O)O)CC3)cc2Cl)c2ccccc21 [Example 142, Trans-4-[1-[[5-chloro-2-fluoro-4-[(1-methyl-1H-indol-3-ylcarbonyl)amino]phenyl]acetyl]-(4S)-[4-cyclopentylpiperazin-1-yl]-(2S)-pyrrolidinylmethoxy]cyclohexanecarboxylic acid]
8.57 | 8.12 | Cn1cc(C(=O)Nc2ccc(CC(=O)N3C[C@@H](N4CCN(CC(F)(F)F)CC4)C[C@H]3CO[C@H]3CC[C@H](C(=O)O)CC3)cc2Cl)c2ccccc21 [Example 130, Trans-4-[1-[[3-chloro-4-[(1-methyl-1H-indol-3-ylcarbonyl)amino]phenyl]acetyl]-(4S)-[4-(2,2,2-trifluoroethyl)piperazin-1-yl]-(2S)-pyrrolidinylmethoxy]cyclohexanecarboxylic acid]
8.77 | 7.62 | Cn1cc(C(=O)Nc2cc(Cl)c(CC(=O)N3C[C@@H](N4CCN(C(=O)C(C)(C)C)CC4)C[C@H]3CO[C@H]3CC[C@H](C(=O)O)CC3)cc2Cl)c2ccccc21 [Example 149, Trans-4-[1-[[2,5-dichloro-4-[(1-methyl-1H-indol-3-ylcarbonyl)amino]phenyl]acetyl]-(4S)-(4-pivaloylpiperazin-1-yl)-(2S)-pyrrolidinylmethoxy]cyclohexanecarboxylic acid]
9.28 | 8.55 | CC(=O)N1CCN([C@H]2C[C@@H](CO[C@H]3CC[C@H](C(=O)O)CC3)N(C(=O)Cc3cc(Cl)c(NC(=O)c4csc5ccccc45)cc3F)C2)CC1 [Example 148, Trans-4-[1-[[4-[(benzo[b]thiophen-3-ylcarbonyl)amino]-5-chloro-2-fluorophenyl]acetyl]-(4S)-(4-acetylpiperazin-1-yl)-(2S)-pyrrolidinylmethoxy]cyclohexanecarboxylic acid]
8.36 | 7.89 | O=C(Nc1cc(F)c(CC(=O)N2C[C@@H](N3CCSCC3)C[C@H]2CO[C@H]2CC[C@H](C(=O)O)CC2)cc1Cl)c1coc2ccccc12 [Example 159, Trans-4-[1-[[4-[(benzo[b]furan-3-ylcarbonyl)amino]-5-chloro-2-fluorophenyl]acetyl]-(4S)-(thiomorpholin-4-yl)-(2S)-pyrrolidinylmethoxy]cyclohexanecarboxylic acid]
8.82 | 8.03 | CN1CCN([C@H]2C[C@@H](CO[C@H]3CC[C@H](C(=O)O)CC3)N(C(=O)Cc3cc(Cl)c(NC(=O)c4csc5ccccc45)cc3Cl)C2)CC1=O [Example 153, Trans-4-[1-[[4-[(benzo[b]thiophen-3-ylcarbonyl)amino]-2,5-dichlorophenyl]acetyl]-(4S)-(4-methyl-3-oxopiperazin-1-yl)-(2S)-pyrrolidinylmethoxy]cyclohexanecarboxylic acid]
9.04 | 8.11 | O=C(Nc1cc(Cl)c(CC(=O)N2C[C@@H](N3CCN(C4CC4)CC3)C[C@H]2CO[C@H]2CC[C@H](C(=O)O)CC2)cc1Cl)c1csc2ccccc12 [Example 138, Trans-4-[1-[[4-[(benzo[b]thiophen-3-ylcarbonyl)amino]-2,5-dichlorophenyl]acetyl]-(4S)-(4-cyclopropylpiperazin-1-yl)-(2S)-pyrrolidinylmethoxy]cyclohexanecarboxylic acid]
